This note sets out measurements from ChEMBL document CHEMBL1201862, “PubChem BioAssay data set” (2004).

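All cell lines were grown in 96-well plates and treated with compound for 48 hours. The concentration for 50% growth inhibition is given as GI50.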 The source made the active and inactive calls. Cut-off read from the data, not from the text of the source: active = GI50 up to about 1.1 µM and inactive = higher.

Test systems include SK-MEL-28; A549; UO-31; HCC 2998; M14; ACHN; MOLT-4; EKVX; NCI-H226; OVCAR-5; KM12; CAKI-1; SK-MEL-2; Hs-578T; BT-549; SN12C; MDA-MB-231; OVCAR-8; SNB-75; RXF 393.
What all share (test): DTP human tumour cell line panel, 48 h

On to `COc1cc(C2SCC(=O)N2Cc2ccccc2)cc(OC)c1OC` (centres undefined), for which the GI50 with SK-MEL-28, with A549, in the assay on UO-31, in the assay on HCC 2998, with M14 and with ACHN was > 100 µM (inactive) each time. For the same compound, the GI50 with MOLT-4, in the assay on EKVX, in the assay with NCI-H226, in the assay with OVCAR-5, in the assay with KM12 and with CAKI-1 was > 100 µM (inactive) in each case. Besides, the GI50 with SK-MEL-2, with Hs-578T, in the assay with BT-549, with SN12C, in the assay with MDA-MB-231 and with OVCAR-8 was > 100 µM (inactive) in each case.
Turning to `NC(=O)c1nnc2ccc(F)cc2c1N`, the GI50 was > 100 µM (inactive) in the assay on A549; 40.3 µM (inactive) with UO-31; > 100 µM (inactive) in the assay with HCC 2998; > 100 µM (inactive) in the assay with M14; 88.9 µM (inactive) in the assay with ACHN; > 100 µM (inactive) in the assay on MOLT-4. The GI50 in the assay on EKVX was > 100 µM (inactive); with NCI-H226 it was 7.57 µM (inactive); in the assay on OVCAR-5 it was 70 µM (inactive); in the assay with SNB-75, > 100 µM (inactive); with KM12, > 100 µM (inactive); in the assay on CAKI-1, > 100 µM (inactive). Moreover, the GI50 in the assay on SK-MEL-2 is > 100 µM (inactive); in the assay with Hs-578T, > 100 µM (inactive); with BT-549 it was 68.4 µM (inactive); in the assay with SN12C, > 100 µM (inactive); in the assay with MDA-MB-231, > 100 µM (inactive); in the assay on OVCAR-8, > 100 µM (inactive).
With `O=c1[nH]/c(=C/c2ccc(OCc3ccccc3)cn2)c(=O)[nH]/c1=C/c1ccccc1`, the GI50 with SK-MEL-28 was > 100 µM (inactive); in the assay on A549 it was 0.594 µM (active); in the assay on HCC 2998 it was 0.175 µM (active); in the assay on M14, 0.129 µM (active); in the assay with ACHN it was 0.296 µM (active); in the assay on MOLT-4 it was 0.327 µM (active). Also, the concentration for 50% growth inhibition (GI50) with EKVX was 0.138 µM (active); in the assay on OVCAR-5 it was 1.07 µM (active); with SNB-75 it was 0.0643 µM (active); in the assay with KM12 it was 0.118 µM (active); in the assay on CAKI-1, 0.194 µM (active); in the assay with Hs-578T it was 0.185 µM (active). Moreover, the 50% growth inhibitory concentration (GI50) with BT-549 is 0.787 µM (active); in the assay on SN12C, 0.113 µM (active); in the assay on MDA-MB-231 it was 0.59 µM (active); in the assay with OVCAR-8, 0.189 µM (active); in the assay with RXF 393, 0.0951 µM (active).
For `Nn1c(-c2ccccc2)n[nH]c1=O`, the GI50 in the assay on SK-MEL-28, in the assay with A549, in the assay on UO-31, with HCC 2998, in the assay with M14 and in the assay with ACHN was > 100 µM (inactive) in each case. The GI50 with MOLT-4, in the assay with EKVX, with NCI-H226, with OVCAR-5, with SNB-75 and in the assay with KM12 was > 100 µM (inactive) throughout. Further, the GI50 is > 100 µM (inactive) with CAKI-1; > 100 µM (inactive) in the assay on SK-MEL-2; 58.3 µM (inactive) in the assay on Hs-578T; > 100 µM (inactive) with BT-549; > 100 µM (inactive) with SN12C; > 100 µM (inactive) in the assay with MDA-MB-231. Also, the GI50 with OVCAR-8 is > 100 µM (inactive).
Consider `CCCCCc1c2nc(c(CCCCC)c3ccc([nH]3)c(CCCCC)c3nc(c(CCCCC)c4ccc1[nH]4)C=C3)C=C2`, for which the GI50 with SK-MEL-28, with A549, in the assay on UO-31, in the assay with HCC 2998, with M14 and in the assay on ACHN was > 100 µM (inactive) in each case. Besides, the GI50 in the assay with MOLT-4, in the assay with EKVX, in the assay with OVCAR-5, with SNB-75, in the assay with KM12 and in the assay with CAKI-1 was > 100 µM (inactive) each time. The GI50 in the assay on SK-MEL-2, in the assay with Hs-578T, in the assay with BT-549, in the assay with SN12C, in the assay on MDA-MB-231 and in the assay with OVCAR-8 was > 100 µM (inactive) throughout.
Take `CC12CCC(C1)C(C)(C)C2OC(=O)c1ccccc1N` (centres undefined): the GI50 with SK-MEL-28 is 16.7 µM (inactive); in the assay with A549, 14.8 µM (inactive); in the assay on UO-31, 17 µM (inactive); in the assay with HCC 2998 it was 13.3 µM (inactive); with M14, 16.6 µM (inactive); with ACHN, 17.5 µM (inactive). Further, the GI50 with MOLT-4 is 6 µM (inactive); with EKVX it was 15.6 µM (inactive); in the assay on OVCAR-5 it was 18.2 µM (inactive); with SNB-75, 20.5 µM (inactive); in the assay with KM12, 16.3 µM (inactive); with CAKI-1 it was 15.2 µM (inactive). Moreover, the GI50 in the assay with SK-MEL-2 was 14.8 µM (inactive); in the assay with Hs-578T, 15.6 µM (inactive); in the assay with BT-549, 19.1 µM (inactive); with SN12C, 17.6 µM (inactive); in the assay on MDA-MB-231 it was 15.9 µM (inactive); in the assay on OVCAR-8, 18.5 µM (inactive). In the assay on RXF 393, the GI50 was 12.2 µM (inactive).
`CC1(C)OCC(C2OC(C)(C)OC2[C@H]2O[C@@]3(O)[C@H]4[C@H](C=CC[C@@H]42)[C@@H](OCc2ccccc2)[C@H](OCc2ccccc2)[C@H]3OCc2ccccc2)O1` (some centres undefined): the GI50 is > 100 µM (inactive) with SK-MEL-28; 24.8 µM (inactive) in the assay on A549; 31 µM (inactive) in the assay with UO-31; 59.3 µM (inactive) in the assay with M14; > 100 µM (inactive) with ACHN; 12.5 µM (inactive) with MOLT-4. Moreover, the GI50 with EKVX is 33.7 µM (inactive); with NCI-H226, 59.3 µM (inactive); in the assay on OVCAR-5, 54.3 µM (inactive); in the assay with SNB-75 it was 27.9 µM (inactive); in the assay on KM12 it was 47.4 µM (inactive); with CAKI-1, 79.1 µM (inactive). Also, the GI50 was 20.7 µM (inactive) in the assay with SK-MEL-2; > 100 µM (inactive) with Hs-578T; 72.3 µM (inactive) with BT-549; 41.2 µM (inactive) in the assay on SN12C; 94.8 µM (inactive) in the assay on MDA-MB-231; 22.7 µM (inactive) in the assay with OVCAR-8. The GI50 in the assay on RXF 393 is 16.5 µM (inactive).
With `CC1=C[C@H](C[C@]2(C)c3c(c4c(C)cccc4oc3=O)O[C@@H]2C)OC1=O`, the GI50 in the assay on SK-MEL-28 was > 10 µM (inactive); in the assay with A549, > 100 µM (inactive); in the assay on UO-31, 32.5 µM (inactive); in the assay with HCC 2998, > 100 µM (inactive); in the assay on M14, 66.1 µM (inactive); with ACHN, > 100 µM (inactive). Besides, the GI50 in the assay on MOLT-4 is 21.1 µM (inactive); in the assay with EKVX it was > 100 µM (inactive); with NCI-H226, > 100 µM (inactive); with OVCAR-5, > 100 µM (inactive); in the assay with SNB-75, > 100 µM (inactive); in the assay on KM12, > 100 µM (inactive). Also, the GI50 was > 100 µM (inactive) in the assay on CAKI-1; > 100 µM (inactive) in the assay with SK-MEL-2; 63.1 µM (inactive) in the assay with Hs-578T; 23.4 µM (inactive) in the assay on BT-549; 54.8 µM (inactive) with SN12C; 40.2 µM (inactive) in the assay with MDA-MB-231. For the same compound, in the assay on OVCAR-8, the GI50 was 68.1 µM (inactive).
In the case of `Cc1ccc(S(=O)(=O)NC(=O)Nc2c(S(N)(=O)=O)cc(S(N)(=O)=O)c(Cl)c2Cl)cc1`, the GI50 with SK-MEL-28, with A549, with UO-31, with HCC 2998, in the assay with M14 and in the assay with ACHN was > 100 µM (inactive) each time. The GI50 with MOLT-4, with EKVX, in the assay with NCI-H226, in the assay on OVCAR-5, in the assay on KM12 and in the assay with CAKI-1 was > 100 µM (inactive) throughout. Also, the GI50 in the assay with SK-MEL-2, with Hs-578T, with BT-549, in the assay on SN12C, with MDA-MB-231 and in the assay on OVCAR-8 was > 100 µM (inactive) each time.
On to `O=C1Cc2c([nH]c3c(Br)cccc23)-c2ccccc2N1`, for which the GI50 was > 100 µM (inactive) in the assay with A549; 37.9 µM (inactive) in the assay on UO-31; 44.9 µM (inactive) in the assay on HCC 2998; 58.5 µM (inactive) in the assay with M14; > 100 µM (inactive) in the assay on ACHN; 16.4 µM (inactive) with MOLT-4. The GI50 was > 100 µM (inactive) in the assay on EKVX; > 100 µM (inactive) in the assay with NCI-H226; > 100 µM (inactive) in the assay on OVCAR-5; 33 µM (inactive) in the assay with SNB-75; 60 µM (inactive) in the assay on KM12; > 100 µM (inactive) with SK-MEL-2. The GI50 was 63.5 µM (inactive) in the assay on Hs-578T; > 100 µM (inactive) in the assay on BT-549; 57.9 µM (inactive) in the assay with SN12C; 33.9 µM (inactive) with MDA-MB-231; 48.2 µM (inactive) with OVCAR-8.
Turning to `Cc1ncc([N+](=O)[O-])n1CCNC(=O)CCCCn1ccnc1[N+](=O)[O-]`, the GI50 in the assay on A549, with UO-31, with HCC 2998, in the assay with M14, in the assay with ACHN and in the assay with MOLT-4 was > 100 µM (inactive) throughout. In addition, the GI50 was > 100 µM (inactive) in the assay with NCI-H226; > 100 µM (inactive) in the assay on OVCAR-5; 97.5 µM (inactive) in the assay on SNB-75; > 100 µM (inactive) in the assay with KM12; > 100 µM (inactive) in the assay on CAKI-1; > 100 µM (inactive) with SK-MEL-2. The GI50 in the assay on Hs-578T, with BT-549, in the assay on SN12C, in the assay on MDA-MB-231 and in the assay on OVCAR-8 was > 100 µM (inactive) in each case.

By GI50 is commonly meant the concentration at which growth is held to half of that of the control.
